Measured values from publication PMC10318822, “Phase 1 dose-escalation study to evaluate the safety, tolerability, pharmacokinetics, and anti-tumor activity of FCN-159 in adults with neurofibromatosis type 1-related unresectable plexiform neurofibromas” (BMC Medicine, 2023).
“Also recorded” adds a separate entry of the source.

Key:
[1] = Plasma pharmacokinetics of FCN-159, non-compartmental analysis; format: in vivo, human; settings: for AUCtau / CLss/F / Cavg,ss / Cmax,ss / Cmin,ss / ARAUC0-t / ARCmax / AUC0-t / AUC0-∞ / CL/F / Cmax / T1/2 / Vd/F: Geomean; for ARAUC0-t: AUC0-t (steady state) / AUC0-t; for ARCmax: Cmax (steady state) / Cmax; for Tmax: median
Method: In order to study the PK characteristics of FCN-159 in plasma, blood samples were collected pre-dose and 0.5, 1, 2, 3, 4, 6, and 10 h post dose on days 1 and 28 of cycle 1, and pre-dose only on days 2, 8, and 15 of cycle 1 and day 1 of cycle 2. Plasma PK parameters of FCN-159 in each dose group were analyzed with standard non-compartmental PK methods using Phoenix WinNonlin, v8.2. PK parameters included area under the curve (AUC)(0-last), AUC(0-∞), maximum plasma concentration (Cmax), time to maximum plasma concentration (Tmax), half-life (T1/2), oral clearance (CL/F), and volume of distribution (Vd/F) for the single-dose regimen and AUC(0-tau), Cmax, Tmax, minimum steady-state plasma concentration (Css,min), mean steady-state plasma concentration (Css, avg), accumulation ratio for AUC (ARAUC), and apparent oral clearance at steady state (CLss/F) for the multiple dose regimen.
Data were summarized using descriptive statistics.
Dose proportionality is assessed by fitting the relationship of the ln-transformed PK parameters (Cmax, AUC) to the ln-transformed dose using a power model loge(Y)=α+βloge(Dose)+ε.

[2] = tested on: RAS-mutant tumor cell lines; parameters: method as in doi:10.1158/1538-7445.AM2020-1951; settings: selected RAS-mutant tumor cell lines; cited from earlier work

Structure (SMILES): Cn1c(=O)c(F)c(Nc2ccc(I)cc2F)c2c(=O)n(C3CC3)nc(-c3cccc(NS(=O)(=O)C4CC4)c3)c21 [FCN-159]
- Dose proportionality of exposure ([1]; Cmax and AUCtau at steady state 4–8 mg, PK profile between 4 and 12 mg): approximately linear; also recorded: roughly dose proportional
- Median Tmax ([1]; across all dosing regimens): 1.21 to 2.18 h
- Mean accumulation ratio of AUC ([1]; from each cohort): 1.5–2.0
- AUCtau ([1]; multiple dose, 4 mg, N 3): 392 ng·h/mL
- CLss/F ([1]; multiple dose, 4 mg, N 3): 10.2 L/h
- Cavg,ss ([1]; multiple dose, 4 mg, N 3): 16.3 ng/mL
- Cmax,ss ([1]; multiple dose, 4 mg, N 3): 45.0 ng/mL
- Cmin,ss ([1]; multiple dose, 4 mg, N 3): 8.54 ng/mL
- ARAUC0-t ([1]; multiple dose, 4 mg, N 3): 1.56
- ARCmax ([1]; multiple dose, 4 mg, N 3): 1.25
- Tmax ([1]; multiple dose, 4 mg, N 3): 1.92 h
- AUCtau ([1]; multiple dose, 6 mg, N 4): 532 ng·h/mL
- CLss/F ([1]; multiple dose, 6 mg, N 4): 11.3 L/h
- Cavg,ss ([1]; multiple dose, 6 mg, N 4): 22.2 ng/mL
- Cmax,ss ([1]; multiple dose, 6 mg, N 4): 52.2 ng/mL
- Cmin,ss ([1]; multiple dose, 6 mg, N 4): 12.2 ng/mL
- ARAUC0-t ([1]; multiple dose, 6 mg, N 4): 2.03
- ARCmax ([1]; multiple dose, 6 mg, N 4): 1.37
- Tmax ([1]; multiple dose, 6 mg, N 4): 1.24 h
- AUCtau ([1]; multiple dose, 8 mg, N 7): 723 ng·h/mL
- CLss/F ([1]; multiple dose, 8 mg, N 7): 11.1 L/h
- Cavg,ss ([1]; multiple dose, 8 mg, N 7): 30.1 ng/mL
- Cmax,ss ([1]; multiple dose, 8 mg, N 7): 82.5 ng/mL
- Cmin,ss ([1]; multiple dose, 8 mg, N 7): 15.4 ng/mL
- ARAUC0-t ([1]; multiple dose, 8 mg, N 7): 1.75
- ARCmax ([1]; multiple dose, 8 mg, N 7): 1.36
- Tmax ([1]; multiple dose, 8 mg, N 7): 1.50 h
- AUC0-t ([1]; single dose, 4 mg, N 3): 250 ng·h/mL
- AUC0-∞ ([1]; single dose, 4 mg, N 3): 370 ng·h/mL
- CL/F ([1]; single dose, 4 mg, N 3): 10.8 L/h
- Cmax ([1]; single dose, 4 mg, N 3): 36.0 ng/mL
- T1/2 ([1]; single dose, 4 mg, N 3): 16.2 h
- Vd/F ([1]; single dose, 4 mg, N 3): 253 L
- Tmax ([1]; single dose, 4 mg, N 3): 1.43 h
- AUC0-t ([1]; single dose, 6 mg, N 4): 262 ng·h/mL
- AUC0-∞ ([1]; single dose, 6 mg, N 4): 388 ng·h/mL
- CL/F ([1]; single dose, 6 mg, N 4): 15.4 L/h
- Cmax ([1]; single dose, 6 mg, N 4): 38.1 ng/mL
- T1/2 ([1]; single dose, 6 mg, N 4): 11.4 h
- Vd/F ([1]; single dose, 6 mg, N 4): 254 L
- Tmax ([1]; single dose, 6 mg, N 4): 1.48 h
- AUC0-t ([1]; single dose, 8 mg, N 8): 453 ng·h/mL
- AUC0-∞ ([1]; single dose, 8 mg, N 8): 661 ng·h/mL
- CL/F ([1]; single dose, 8 mg, N 8): 12.1 L/h
- Cmax ([1]; single dose, 8 mg, N 8): 64.2 ng/mL
- T1/2 ([1]; single dose, 8 mg, N 8): 15.4 h
- Vd/F ([1]; single dose, 8 mg, N 8): 269 L
- Tmax ([1]; single dose, 8 mg, N 8): 1.21 h
- AUC0-t ([1]; single dose, 12 mg, N 4): 1050 ng·h/mL
- AUC0-∞ ([1]; single dose, 12 mg, N 4): 1330 ng·h/mL
- CL/F ([1]; single dose, 12 mg, N 4): 9.03 L/h
- Cmax ([1]; single dose, 12 mg, N 4): 147 ng/mL
- T1/2 ([1]; single dose, 12 mg, N 4): 11.7 h
- Vd/F ([1]; single dose, 12 mg, N 4): 153 L
- Tmax ([1]; single dose, 12 mg, N 4): 2.18 h
- Cell proliferation [2]: inhibiting cell proliferation
